The values that follow come from a melting point compilation (Tetko et al.; mined from patent text by program, amines drawn as free bases though some values may be those of a salt).

Consider `Cc1c(OCC(F)(F)F)ccnc1CSc1nc2cc(OC(F)F)ccc2n1N`, for which the melting point (in general, the temperature of the solid-liquid transition) is 179 to 180 °C. With `N#CCCNC(=O)c1n[nH]cc1NC(=O)c1cccs1` the figure was 226 to 227 °C; with `COc1ccccc1SCC(=O)NCCCCCC(=O)O`, 95 to 97 °C; with `N[C@@H](Cc1cccc(OC(F)(F)C(F)F)c1)[C@H](O)c1ccnc(F)c1` (racemic), 119 to 120 °C.

For `Cc1c(F)cc(C(=O)NC2CC2)cc1I`, the melting point was 112 to 114 °C. Then `CCCCc1c(Cl)nc(N=CN(C)C)nc1Cl`, with 66 to 68 °C; and `NCCc1cc(-c2ccccc2)n(-c2ccc(S(N)(=O)=O)cc2)n1`, with 189 to 192 °C. With `CC(C)OC(=O)c1ccc(Nc2cccc(N3CCCCC3)c2)c([N+](=O)[O-])c1` the figure was 160 to 161 °C. `CC(C)(C)c1cc(/C=C/C(=O)COc2ccccc2)cc(C(C)(C)C)c1O` yielded a melting point of 100 to 102 °C.

`O=C(O)C=C1CCCCC1Cc1ccccc1` (racemic) returned a melting point of 98 to 100 °C. As for `CCOCc1nc2c(NC(C)=O)nc3ccccc3c2n1CC(C)(C)NS(C)(=O)=O`, the melting point lay in the range of 75 to 76 °C.

In turn, `CCOC(=O)C=C1CCC(C#N)(c2ccc(OC)c3c2OCCO3)CC1` (stereo not drawn) returned a melting point of 110 to 112 °C.

For `Oc1ccccc1N1CCN(Cc2nc3ccccc3[nH]2)CC1`, the melting point fell in the range of 208 to 216 °C. For `O=C1c2ccccc2CCC1CN1CCC(O)(c2ccc(Cl)cc2)CC1` (stereo not drawn), the melting point was 227 to 228 °C. With `Cc1cccc(-c2nc(Cl)cc(Cl)n2)c1` the figure was 80 to 81 °C; with `O=C(CCCl)c1cc2ccccc2o1`, 116 to 118 °C; with `CC1Cc2cc(S(N)(=O)=O)cc(C(=O)NC3CCN(Cc4ccccc4)CC3)c2O1` (stereo not drawn), 226 to 228 °C.

`COc1cccc(CC(=O)O)c1OCCCc1ccc(OC(C)C)cc1Oc1ncc(C(F)(F)F)cc1Cl` registered a melting point of 100 to 101 °C. Then `COc1ccccc1CC(=N)N1C[C@@H]2C(=O)CCC(c3ccccc3)(c3ccccc3)[C@@H]2C1`, with 190 °C; and `Clc1ccnc(Nc2ccccc2)n1`, with 134 to 135 °C; and `Clc1cc2nc(Cl)c(N3CCNCC3)nc2cc1Cl`, with greater than 300 °C. Molecule `C=C[Si](C)(c1ccccc1)c1cccc(Cl)c1C(=O)NCC` (stereo not drawn) had a melting point of 85 to 87 °C. Then `C[Si](C)(C)C#Cc1cnn2c(C(F)(F)F)cc(-c3ccc(Cl)cc3)nc12`, with 198 °C; and `CCOC(=O)N1CCN(C(=S)Cl)CC1`, with 107 to 111 °C; and `COC(=O)c1ccc2cc(C(=O)c3cc(OCc4ccc(F)cc4)c4c(c3)C(C)(C)CCC4(C)C)ccc2c1`, with 179 °C. With `COc1cc2c(cc1OC)CN(CCC1OCC(C)(C)c3cc(OC)c(OC)cc31)CC2` (stereo not drawn) the figure was 100 to 105 °C. Then `Cc1c(NC(=O)CC(C)(C)C)c(C)c2c(c1-c1cccc(N3CCCC3)c1)OCC2c1ccc(C(C)C)cc1` (stereo not drawn), with 206 to 207 °C; and `NCC1Cc2cc(F)cc(-c3cccnc3)c2O1` (stereo not drawn), with 88 to 90 °C; and `O=C(CCC(=O)N1CCC(c2ccc(Cl)cc2)CC1)c1ccc2c(c1)CCN(CC(=O)c1ccccc1)CC2`, with 108 to 109 °C. Molecule `CC(=O)c1cc(N2CCOCC2)ccc1NC(=O)c1cccc(OCc2ccccc2)c1` had a melting point of 140 to 142 °C.

With `COc1cc2c(cc1O)CCN(Cc1ccc(OC)c(OC)c1)C2`, the melting point fell in the range of 146 to 147 °C.

Turning to `O=C(Cl)C(=O)N1CCOC1=O`, the melting point came to 57 °C. `CCN1C(=O)c2cccnc2Nc2cccc(C)c21` yielded a melting point of 186 to 188 °C. With `Cc1cn(C2=CCC(O)CC2)c(=O)[nH]c1=O` (racemic) the figure was 223 °C. With `CCOC(=O)C(Cc1cc(Oc2c(Cl)cc(C(F)(F)F)cc2Cl)ccc1SC(F)(F)F)C(=O)OCC` the figure was 83 °C. `Cc1cc(-c2ncn3c(C(F)(F)F)cc(-c4ccc(C(F)(F)F)c(C(F)(F)F)c4)nc23)ccn1` showed a melting point of 218 °C. Then `CCC(=O)N[C@H]1CC[C@H](CCN2CCN(c3nccc4c3CCO4)CC2)CC1`, with 192 °C. Then `CC12CCC(C1)C(C)(C)C2(CCO)SN=O` (stereo not drawn), with 81 to 85 °C; and `CC(=O)Oc1cc([N+](=O)[O-])ccc1CN1C(=O)c2ccccc2C1=O`, with 175 to 178 °C; and `CC1CC(Nc2ccc(F)cc2)c2cc(F)ccc2N1` (stereo not drawn), with 120 to 122 °C. Consider `Cc1cccc(C(=O)c2[nH]c3ccc(Cl)cc3c2CC(=O)O)n1`, for which the melting point is 225 to 226 °C. Take `COc1ccc(C=CC(=O)c2c(OC)cc(OC)cc2OC(=O)OCc2ccccc2)cc1`: the melting point was 127 °C. With `OCC(O)COCCCCCCCCOc1ccc(-c2ccccc2)cc1` (stereo not drawn) the figure was 94 to 96 °C; with `O=C(O)C1=Cc2cc(C(F)(F)F)ccc2OC1C(F)(F)F` (stereo not drawn), 144 to 145 °C; with `Cc1cc(Nc2ccnc(Nc3ccc(S(=O)(=O)N(CC4CCCO4)C4CCN(C)CC4)cc3)n2)ccc1F` (stereo not drawn), 189 °C.

Molecule `CCOC(=O)CNc1c(C)cccc1[N+](=O)[O-]` displayed a melting point of 49 to 52 °C. On to `O=S(=O)(CC(Br)(CBr)c1cccc(Cl)n1)C1CC1` (stereo not drawn), for which the melting point turned out to be 75 °C.

As to `Cc1nc(Br)c2n1-c1ccc(Cl)cc1C(c1ccccc1F)=NC2`, the melting point lay within 201 to 205 °C. Then `COc1ccc(N2CCN(c3c(C)c(C)c4c(c3C)C(c3cccc5ccccc35)C(C)(C)O4)CC2)cc1` (stereo not drawn), with 165 to 166 °C; and `Cc1nnc(N2CCN(C=O)CC2)c2cc3ccccn3c12`, with 325 °C. With `CC(C)(C)OC(=O)N=C(N)N(CCc1ccc(OCCC2Oc3c(Cl)cc(Cl)cc3N(Cc3cccc(Cl)c3)C2=O)cc1)C(=O)OC(C)(C)C` (stereo not drawn) the figure was 115 to 117 °C; with `O=[N+]([O-])c1cnn(-c2c(Cl)cc(Cl)cc2Cl)c1Cl`, 78 to 84 °C. With `COC(=O)Cc1cc(C)ccc1OCc1ccc(OCc2nc(-c3ccccc3)oc2C)cc1` the figure was 80 to 81 °C. As to `O=C(NCCCOc1cc(CN2CCCCC2)ccn1)c1cn[nH]c1`, the melting point is 117 to 119 °C. Then `COC(=S)c1nc(C)c(N)nc1N`, with 158 to 160 °C; and `N#Cc1ccc(Oc2cncc3sc(C(N)=O)cc23)cc1`, with 255 to 257 °C. With `O=C(Nc1ccc(NC(=S)NCc2ccccc2)cc1)c1ccc(NC(=S)NCc2ccccc2)cc1` the figure was 207 °C; with `COc1cccc2cc3c(c(-c4ccc5c(c4)OCO5)c12)CNC3=O`, 295 to 298 °C.

As for `COC(=O)C(C)Oc1ccc(NC(=O)COCc2ccccc2)cc1` (stereo not drawn), the melting point was in the range of 67 to 70 °C.

Turning to `COc1cc(Cl)nc(NC(=O)NS(=O)(=O)c2ccccc2OC(Cl)=CCl)n1`, the melting point lay in the range of 196 to 198 °C. Molecule `CC(C)(C)OC(=O)N[C@@H](Cc1ccc2ccccc2c1)C(=O)OCc1ccccc1` returned a melting point of 90 to 91 °C. With `O=C(O)C(=O)Nc1ccc2[nH]c(=O)oc2c1` the figure was 254 °C; with `O=C(O)CC(Br)c1ccc([N+](=O)[O-])cc1` (stereo not drawn), 166 to 167 °C; with `Cc1nc(S)c2[nH]cnc2n1`, greater than 300 °C. With `Cc1cc(O)ccc1-n1cc(C(=O)O)c(=O)cc1C1=CCCC1` the figure was 211 to 213 °C; with `COC(=O)c1ccc(C2NCCc3c2[nH]c2ccccc32)cc1` (stereo not drawn), 179 °C; with `CCOC(=O)c1cc(OC)c(OCCOC)cc1[N+](=O)[O-]`, 68 to 69 °C. With `COc1c(C2CCN(CCCCNC(=O)c3ccc(-c4ccc(Cl)cc4)cn3)CC2)ccc2c1CCCC2` the figure was 103 to 105 °C; with `COc1cc(OC)nc(NC(=O)NS(=O)(=O)c2ccccc2C(CF)OC(C)=O)n1` (stereo not drawn), 176 to 178 °C; with `COc1nc(NN)c2c(OC)c(OC)cc(Cl)c2n1`, 166 to 168 °C. `C#Cc1ccc(-c2c(C)nnc(OC)c2-c2c(F)cc(OC)cc2F)cc1` had a melting point of 192 to 193 °C. Molecule `NCC(=O)N1CCN(C(=O)c2cc(C(F)(F)F)cc(C(F)(F)F)c2)[C@H](Cc2c[nH]c3ccccc23)C1` showed a melting point of 110 to 120 °C. `COc1cc2c(cc1OC)CN(CCc1cccc(NC(=O)c3cccc4c(=O)c5cccc(OC)c5[nH]c34)c1)CC2` came in with a melting point of 152 °C. Then `Clc1cccc(CNc2ncnc3nc[nH]c23)c1`, with 252 °C; and `O=C1c2cccc3c2N(C(=O)C2CCCN12)C(c1ccccc1)O3` (stereo not drawn), with 160 to 163 °C; and `CCCCC(CC)n1c(CC)nc2c(-c3c(C)cc(C)cc3C)ncnc21` (stereo not drawn), with 99 to 100 °C.

For the molecule `CCC1Cn2c(ncc(C(=O)O)c2=O)-c2ccccc21` (stereo not drawn), the melting point is 167 to 169 °C. With `O=C1N(Cc2ccc(OCc3ccccc3)cc2)c2ccccc2C12COc1cc3c(cc12)CCO3` (stereo not drawn) the figure was 169 to 170 °C; with `CCOC(=O)Oc1cc2occ(C(=O)O)c(=O)c2cc1OC(=O)OCC`, 107 to 109 °C; with `NC(=O)COc1ccc(CCNS(=O)(=O)c2ccc(Cl)cc2)cc1`, 158 to 159 °C.

Take `CC(C)CC1(C)C(=O)N(Cc2ccccc2)CCN1Cc1ccccc1` (stereo not drawn): the melting point lay within 98 to 101 °C.

With `CCOC(=O)C(=NOC)C1=CSCCO1`, the melting point lay within 64 to 66 °C. Then `c1ccc2c(c1)c(-c1nnn[nH]1)cc1nnnn12`, with 250 to 251 °C; and `CC(C)(C)OC(=O)N[C@@H](CSc1ccccc1N)C(=O)O`, with 109 to 111 °C. Regarding `COc1c(C)cc(C)c(C2CC(=O)C=C(O)C2)c1C` (stereo not drawn), the melting point lay in the range of 165 to 166 °C. Then `Cc1cc(N)n(-c2ccc(Cl)cc2C)n1`, with 86 to 87 °C; and `COC(=O)Cc1ccccc1OCc1ccccc1`, with 74 to 75 °C; and `CCCCS(=O)(=O)ON=C(C#N)c1ccc(OC)cc1`, with 71 °C.
